Drawing on patent publication US20230219986A1, “NOVEL AMINOPYRIMIDINE EGFR INHIBITOR” (QILU PHARMACEUTICAL CO., LTD., priority 2020, published 2023), this text covers IC50 and GI50 for 20 compounds.

The target of experiment [1] is T1, L858R/T790M/C797S triple mutant EGFR (Homo sapiens, UniProt P00533, C797S/L858R/T790M).
T1 construct: purchased Signalchem
The experiment can be described thus: Enzymology experiment in vitro (HTRF/FRET kinase activity), L858R/T790M/C797S triple mutant EGFR. Format: biochemical. The conditions noted are these: HTRF KinEASE-TK. Put shortly: (§1)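 HTRF KinEASE-TK format: EGFR enzyme preincubated with compound 10 min at room temperature, then peptide substrate plus ATP added for 40 min. Detection with EDTA, XL665-streptavidin and Eu³⁺-labeled antibody for 1 h.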
On the technique in general: Time-resolved FRET reads energy transfer from a long-lived donor to a nearby acceptor.

The subject of experiment [2] is EGFR wild-type cell line A431. The experiment can be described thus: Cell proliferation inhibition experiment (CellTiter-Glo), A431. The experiment is classed as cell-based. The note with it: Homo sapiens, A431 cells, Cell Titer-Glo, read-out: A431 EGFR WT IC50. Put shortly: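 A431 cells, 800 per well, were cultured 24 h and then exposed to serially diluted compound (0.1% DMSO final) for 72 h at 37° C., 5% CO2.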
A general note: Cellular ATP, detected with luciferase, serves as a proxy for viable cell number.

In the next experiment the target is T2, wild-type EGFR (Homo sapiens, UniProt P00533).
T2 construct: purchased Signalchem
T2 sequence (P00533 25-1210): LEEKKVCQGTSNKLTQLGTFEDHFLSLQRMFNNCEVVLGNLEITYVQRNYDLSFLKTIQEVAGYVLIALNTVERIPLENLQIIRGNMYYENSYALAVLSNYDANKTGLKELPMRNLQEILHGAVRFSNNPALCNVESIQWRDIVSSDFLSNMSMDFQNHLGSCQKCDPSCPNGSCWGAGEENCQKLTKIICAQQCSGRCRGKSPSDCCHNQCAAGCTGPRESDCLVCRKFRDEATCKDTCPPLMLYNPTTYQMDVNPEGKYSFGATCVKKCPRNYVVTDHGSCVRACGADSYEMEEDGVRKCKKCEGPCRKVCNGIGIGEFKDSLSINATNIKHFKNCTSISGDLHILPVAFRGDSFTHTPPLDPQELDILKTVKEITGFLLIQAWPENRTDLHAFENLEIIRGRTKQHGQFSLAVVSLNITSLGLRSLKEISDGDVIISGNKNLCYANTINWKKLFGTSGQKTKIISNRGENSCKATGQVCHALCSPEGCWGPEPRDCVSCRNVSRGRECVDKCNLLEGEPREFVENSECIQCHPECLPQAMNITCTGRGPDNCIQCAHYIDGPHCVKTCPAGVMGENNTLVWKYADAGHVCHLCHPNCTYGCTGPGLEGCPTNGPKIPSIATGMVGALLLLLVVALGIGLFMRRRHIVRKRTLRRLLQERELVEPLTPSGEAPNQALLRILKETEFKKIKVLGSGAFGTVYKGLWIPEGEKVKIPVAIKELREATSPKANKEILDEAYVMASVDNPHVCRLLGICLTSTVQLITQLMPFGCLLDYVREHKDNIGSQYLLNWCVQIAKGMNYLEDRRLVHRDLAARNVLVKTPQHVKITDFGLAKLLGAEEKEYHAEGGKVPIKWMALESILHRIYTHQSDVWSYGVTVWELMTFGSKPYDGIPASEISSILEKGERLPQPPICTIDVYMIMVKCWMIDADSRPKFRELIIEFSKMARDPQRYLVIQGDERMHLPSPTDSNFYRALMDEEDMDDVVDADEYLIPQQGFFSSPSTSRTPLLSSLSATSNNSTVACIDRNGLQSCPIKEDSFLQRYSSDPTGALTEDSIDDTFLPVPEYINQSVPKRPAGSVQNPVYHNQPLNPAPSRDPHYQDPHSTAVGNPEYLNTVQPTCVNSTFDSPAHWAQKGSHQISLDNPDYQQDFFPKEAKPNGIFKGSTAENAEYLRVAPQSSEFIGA
Kind of experiment: Enzymology experiment in vitro (HTRF/FRET kinase activity), wild-type EGFR. Format: biochemical. The conditions noted are these: HTRF KinEASE-TK. In a few lines:
as §1

Experiment [3] concerns the target Ba/F3 L858R/T790M/C797S EGFR triple mutant cell line (Homo sapiens, UniProt P00533, T790M/C797S/L858R, cells depend on it). Kind of experiment: Cell proliferation inhibition experiment (CellTiter-Glo), Ba/F3 L858R/T790M/C797S. Format: cell-based. The conditions noted are these: 72 hours, Cell Titer-Glo, read-out: Ba/F3 (L858R/T790M/C797S) IC50.
In experiment [4] the target is Ba/F3 De119/T790M/C797S EGFR triple mutant cell line (Homo sapiens, UniProt P00533, T790M/C797S, cells depend on it, form not given). The experiment can be described thus: Cell proliferation inhibition experiment (CellTiter-Glo), Ba/F3 De119/T790M/C797S. Format: cell-based. The conditions noted are these: Ba/F3 Del19/T790M/C797S EGFR triple mutant cells, 72 hours, Cell Titer-Glo; read-out: Ba/F3 (Del19/T790M/C797S) IC50.
Ba/F3 De119/T790M/C797S EGFR triple mutant cell line, sequence (P00533 with tags, fused parts or gaps DEL746-750/T790M/C797S, form open): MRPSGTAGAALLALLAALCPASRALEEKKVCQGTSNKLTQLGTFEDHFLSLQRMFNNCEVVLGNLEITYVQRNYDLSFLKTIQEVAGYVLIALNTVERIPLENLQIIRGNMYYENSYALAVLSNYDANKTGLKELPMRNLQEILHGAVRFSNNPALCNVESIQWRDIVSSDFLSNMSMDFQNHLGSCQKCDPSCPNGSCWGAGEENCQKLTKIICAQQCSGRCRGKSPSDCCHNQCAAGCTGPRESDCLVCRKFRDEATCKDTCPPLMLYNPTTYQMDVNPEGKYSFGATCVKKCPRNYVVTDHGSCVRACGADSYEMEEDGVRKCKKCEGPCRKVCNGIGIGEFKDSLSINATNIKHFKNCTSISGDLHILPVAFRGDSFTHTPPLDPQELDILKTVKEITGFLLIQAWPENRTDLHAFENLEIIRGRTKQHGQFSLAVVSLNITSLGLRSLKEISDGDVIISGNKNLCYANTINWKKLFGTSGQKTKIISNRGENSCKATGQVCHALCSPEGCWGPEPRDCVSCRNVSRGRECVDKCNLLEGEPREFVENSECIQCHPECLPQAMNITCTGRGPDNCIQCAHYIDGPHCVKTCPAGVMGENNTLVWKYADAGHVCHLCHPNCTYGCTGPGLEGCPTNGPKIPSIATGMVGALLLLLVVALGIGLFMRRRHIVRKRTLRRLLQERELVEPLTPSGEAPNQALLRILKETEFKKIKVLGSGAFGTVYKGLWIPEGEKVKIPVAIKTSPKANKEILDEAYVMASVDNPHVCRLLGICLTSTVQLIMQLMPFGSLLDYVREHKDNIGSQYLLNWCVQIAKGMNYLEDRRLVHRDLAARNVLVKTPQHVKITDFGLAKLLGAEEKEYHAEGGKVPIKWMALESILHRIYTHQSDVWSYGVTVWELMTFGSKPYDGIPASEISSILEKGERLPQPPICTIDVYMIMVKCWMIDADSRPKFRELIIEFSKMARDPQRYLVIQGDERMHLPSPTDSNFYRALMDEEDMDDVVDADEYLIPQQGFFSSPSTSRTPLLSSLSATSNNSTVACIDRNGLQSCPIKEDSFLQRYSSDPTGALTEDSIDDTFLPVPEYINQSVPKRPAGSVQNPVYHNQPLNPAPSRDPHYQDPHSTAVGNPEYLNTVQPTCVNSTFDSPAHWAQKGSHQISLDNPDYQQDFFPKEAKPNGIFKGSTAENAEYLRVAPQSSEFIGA

Where [5] appears, read: read-out: EGFR (L858R/T790M/C797S) IC50.

The structures appear in SMILES notation. Read-outs that look alike come from different tables or passages of the source.

T1 sequence (P00533 25-1210 T790M/C797S/L858R): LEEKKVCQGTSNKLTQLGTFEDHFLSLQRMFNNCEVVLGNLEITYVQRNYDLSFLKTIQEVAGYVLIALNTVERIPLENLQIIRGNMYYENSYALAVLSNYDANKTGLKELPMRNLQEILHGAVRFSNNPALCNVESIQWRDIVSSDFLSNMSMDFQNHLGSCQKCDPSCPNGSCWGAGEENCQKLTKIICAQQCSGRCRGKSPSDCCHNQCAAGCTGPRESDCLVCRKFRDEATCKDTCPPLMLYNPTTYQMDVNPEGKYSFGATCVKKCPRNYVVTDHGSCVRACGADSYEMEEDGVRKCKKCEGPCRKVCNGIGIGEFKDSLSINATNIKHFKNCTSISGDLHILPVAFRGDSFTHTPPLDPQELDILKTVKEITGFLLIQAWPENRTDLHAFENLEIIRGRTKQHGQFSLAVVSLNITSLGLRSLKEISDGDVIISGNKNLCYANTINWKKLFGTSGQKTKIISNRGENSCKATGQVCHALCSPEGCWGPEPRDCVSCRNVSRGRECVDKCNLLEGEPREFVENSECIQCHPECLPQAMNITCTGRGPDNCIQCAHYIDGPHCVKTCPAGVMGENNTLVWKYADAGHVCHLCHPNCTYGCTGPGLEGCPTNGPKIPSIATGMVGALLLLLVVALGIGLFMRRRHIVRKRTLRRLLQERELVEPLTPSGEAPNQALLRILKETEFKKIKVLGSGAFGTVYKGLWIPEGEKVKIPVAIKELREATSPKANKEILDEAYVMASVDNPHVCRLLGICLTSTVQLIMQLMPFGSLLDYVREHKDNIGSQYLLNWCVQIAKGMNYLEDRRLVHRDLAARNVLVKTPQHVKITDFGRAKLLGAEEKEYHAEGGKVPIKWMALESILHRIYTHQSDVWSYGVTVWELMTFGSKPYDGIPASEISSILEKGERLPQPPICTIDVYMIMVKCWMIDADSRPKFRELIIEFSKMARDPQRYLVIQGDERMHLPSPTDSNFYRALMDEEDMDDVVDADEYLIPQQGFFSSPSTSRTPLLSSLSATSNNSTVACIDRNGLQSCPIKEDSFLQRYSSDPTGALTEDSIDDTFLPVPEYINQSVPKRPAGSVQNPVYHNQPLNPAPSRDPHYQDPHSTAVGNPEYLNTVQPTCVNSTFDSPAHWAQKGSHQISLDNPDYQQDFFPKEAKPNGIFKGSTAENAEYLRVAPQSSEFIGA
Ba/F3 L858R/T790M/C797S EGFR triple mutant cell line, sequence (P00533 whole entry T790M/C797S/L858R): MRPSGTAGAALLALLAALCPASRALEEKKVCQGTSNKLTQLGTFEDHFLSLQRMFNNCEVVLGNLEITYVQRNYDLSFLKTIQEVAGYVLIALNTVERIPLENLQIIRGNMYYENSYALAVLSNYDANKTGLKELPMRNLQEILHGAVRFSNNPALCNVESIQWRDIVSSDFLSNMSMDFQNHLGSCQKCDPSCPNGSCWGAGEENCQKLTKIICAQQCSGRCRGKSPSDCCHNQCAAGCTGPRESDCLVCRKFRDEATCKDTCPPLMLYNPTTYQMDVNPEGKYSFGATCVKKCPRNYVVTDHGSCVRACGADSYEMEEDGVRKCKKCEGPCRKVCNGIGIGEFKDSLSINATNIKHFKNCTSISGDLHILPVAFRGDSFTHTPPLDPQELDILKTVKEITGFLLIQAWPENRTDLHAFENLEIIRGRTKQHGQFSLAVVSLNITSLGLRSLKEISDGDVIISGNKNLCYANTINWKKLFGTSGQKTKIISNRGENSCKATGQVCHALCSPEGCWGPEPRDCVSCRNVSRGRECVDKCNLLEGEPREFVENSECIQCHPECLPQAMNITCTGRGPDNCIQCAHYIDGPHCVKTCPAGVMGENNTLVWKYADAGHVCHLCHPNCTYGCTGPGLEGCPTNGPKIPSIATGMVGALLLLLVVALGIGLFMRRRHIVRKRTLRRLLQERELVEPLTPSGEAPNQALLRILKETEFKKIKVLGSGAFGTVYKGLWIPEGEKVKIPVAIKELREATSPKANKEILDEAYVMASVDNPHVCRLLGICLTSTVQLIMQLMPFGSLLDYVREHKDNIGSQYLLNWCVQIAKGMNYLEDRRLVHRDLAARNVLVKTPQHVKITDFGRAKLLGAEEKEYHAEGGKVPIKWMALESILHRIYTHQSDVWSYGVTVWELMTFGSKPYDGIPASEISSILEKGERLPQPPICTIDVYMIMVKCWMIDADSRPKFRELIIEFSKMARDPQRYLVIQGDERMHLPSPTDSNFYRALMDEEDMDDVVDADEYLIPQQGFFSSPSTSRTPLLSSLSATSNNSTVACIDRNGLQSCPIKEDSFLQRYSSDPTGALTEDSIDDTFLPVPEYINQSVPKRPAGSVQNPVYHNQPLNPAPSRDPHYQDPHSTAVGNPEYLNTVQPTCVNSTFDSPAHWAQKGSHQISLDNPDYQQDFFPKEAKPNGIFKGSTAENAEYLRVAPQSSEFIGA

As for `COc1cc(N2CCC(OC)CC2)c(-c2cnn(C)c2)cc1Nc1ncc(Br)c(Nc2ccc3nccnc3c2P(C)(C)=O)n1` [compound 26], the IC50 in experiment [1] (setting [5]) is 0.49 nM; in experiment [2] (A-431, 72 h), 152 nM; on wild-type EGFR (read-out: EGFR (WT) IC50), 5.75 nM. Besides, the GI50 in experiment [3] came out at 4.25 nM; in experiment [4], 1.22 nM.

Take `COCCN1CCN(C2CCN(c3cc(OC)c(Nc4ncc(Br)c(Nc5ccc6nccnc6c5P(C)(C)=S)n4)cc3-c3cnn(C)c3)CC2)CC1` [compound 232]: the IC50 in experiment [1] (EGFR (L858R/T790M/C797S) IC50(nM)) came to 0.58 nM; in experiment [2] (A-431, 72 hours), 126 nM; against wild-type EGFR (EGFR (WT) IC50(nM)) it was 4.11 nM. Besides, the GI50 in experiment [3] came out at 8.59 nM; in experiment [4] it was 3.16 nM.

On to `COc1cc(N2CCOCC2)c(-c2cnoc2)cc1Nc1ncc(Br)c(Nc2ccc3nccnc3c2P(C)(C)=O)n1` [compound 19], for which the IC50 in experiment [1] (setting [5]) amounted to 0.17 nM; in experiment [2] (A-431, 72 h) it was 488 nM; on wild-type EGFR (read-out: EGFR (WT) IC50) it was 39.3 nM. Besides, the GI50 in experiment [3] amounted to 68.8 nM; in experiment [4], 6.71 nM.

Consider `COc1cc(N2CCOCC2)c(-c2ccn(C)n2)cc1Nc1ncc(Br)c(Nc2ccc3nccnc3c2P(C)(C)=O)n1` [compound 140], for which the IC50 in experiment [1] (setting [5]) amounted to 5.44 nM; in experiment [2] (A-431, 72 h), 3670 nM; on wild-type EGFR (read-out: EGFR (WT) IC50), 94.6 nM. Moreover, the results for the GI50 in experiment [3] and in experiment [4] were 62 nM and 29.8 nM, respectively.

`COc1cc(N2CCC(N3CCC(F)CC3)CC2)c(-c2cnn(C)c2)cc1Nc1ncc(Br)c(Nc2ccc3nccnc3c2P(C)(C)=O)n1` [compound 180]: the IC50 came out at 0.36 nM in experiment [1] (setting [5]); 64.8 nM in experiment [2] (A-431, 72 h); 1.4 nM at wild-type EGFR (read-out: EGFR (WT) IC50). Also, the GI50 is 6.53 nM in experiment [3] and 4.13 nM in experiment [4].

As to `COc1cc(N2CC3CC2CN3C)c(-c2cnn(C)c2)cc1Nc1ncc(Br)c(Nc2ccc3nccnc3c2P(C)(C)=O)n1` (stereo not shown) [compound 11], the IC50 in experiment [1] (setting [5]) was found to be 0.07 nM; in experiment [2] (A-431, 72 h), 159 nM; at wild-type EGFR (read-out: EGFR (WT) IC50) it was 12.1 nM. The GI50 was 224 nM in experiment [3] and 83.4 nM in experiment [4].

In the case of `COc1cc(N2CCC3(CC2)CN(C)CCO3)c(-c2cnn(C)c2)cc1Nc1ncc(Br)c(Nc2cc3c(cc2N(C)S(C)(=O)=O)CC3)n1` [compound 195], the IC50 was 2.33 nM in experiment [1] (setting [5]); 415 nM in experiment [2] (A-431, 72 h); 8.52 nM at wild-type EGFR (read-out: EGFR (WT) IC50). Also, the GI50 in experiment [3] was 12.5 nM; in experiment [4], 7.7 nM.

Regarding `COc1ccc(-c2cnn(C)c2)cc1Nc1ncc(Br)c(Nc2ccc3nccnc3c2P(C)(C)=O)n1` [compound 5], the IC50 in experiment [1] (setting [5]) stood at 0.03 nM; in experiment [2] (A-431, 72 h), 140 nM; on wild-type EGFR (read-out: EGFR (WT) IC50), 8.13 nM. The GI50 came to 12.7 nM in experiment [3] and 3.71 nM in experiment [4].

Take `COc1ccc(-c2cnoc2)cc1Nc1ncc(Br)c(Nc2ccc3nccnc3c2P(C)(C)=O)n1` [compound 9]: the IC50 in experiment [1] (setting [5]) is 0.88 nM; in experiment [2] (A-431, 72 h), 450 nM; at wild-type EGFR (read-out: EGFR (WT) IC50) it was 75.7 nM. The GI50 in experiment [3] turned out to be 110 nM; in experiment [4], 55 nM.

As for `COc1cc(N2CCC(N3CCN(C)CC3)CC2)c(-c2cscn2)cc1Nc1ncc(Br)c(Nc2ccc3nccnc3c2P(C)(C)=O)n1` [compound 98], the IC50 turned out to be 0.82 nM in experiment [1] (setting [5]); 177 nM in experiment [2] (A-431, 72 h); 16.2 nM at wild-type EGFR (read-out: EGFR (WT) IC50). Besides, the GI50 in experiment [3] was found to be 27.8 nM; in experiment [4], 11 nM.

Regarding `COc1cc(N2CCOC(CO)C2)c(-c2cnn(C)c2)cc1Nc1ncc(Br)c(Nc2ccc3nccnc3c2P(C)(C)=O)n1` (stereo not shown) [compound 115], the IC50 in experiment [1] (setting [5]) was determined as 0.4 nM; in experiment [2] (A-431, 72 h) it was 159 nM; on wild-type EGFR (read-out: EGFR (WT) IC50) it was 1.65 nM. The results for the GI50 in experiment [3] and in experiment [4] were 16.1 nM and 6.53 nM, respectively.

As for `[2H]C([2H])([2H])OCCN1CCN(c2cc(OC)c(Nc3ncc(Br)c(Nc4ccc5nccnc5c4P(C)(C)=O)n3)cc2-c2cnn(C)c2)CC1` [compound 181], the IC50 turned out to be 0.16 nM in experiment [1] (setting [5]); 88.9 nM in experiment [2] (A-431, 72 h); 3.53 nM on wild-type EGFR (read-out: EGFR (WT) IC50). The GI50 stood at 9.67 nM in experiment [3] and 3.52 nM in experiment [4].

Regarding `COc1cc(N2CCC(N3CC[C@H](OC)[C@H](F)C3)CC2)c(-c2cnn(C)c2)cc1Nc1ncc(Br)c(Nc2ccc3nccnc3c2P(C)(C)=O)n1` [compound 185], the IC50 in experiment [1] (setting [5]) is 0.36 nM; in experiment [2] (A-431, 72 h) it was 127 nM; at wild-type EGFR (read-out: EGFR (WT) IC50), 2.42 nM. In addition, the GI50 in experiment [3] turned out to be 4.02 nM; in experiment [4], 1.77 nM.

In the case of `COc1cc(N2CCC3(CCN(CC4CC4)CC3)CC2)c(-c2cnn(C)c2)cc1Nc1ncc(Br)c(Nc2ccc3nccnc3c2P(C)(C)=O)n1` [compound 167], the IC50 is 0.79 nM in experiment [1] (setting [5]); 47.4 nM in experiment [2] (A-431, 72 h); 1.95 nM at wild-type EGFR (read-out: EGFR (WT) IC50). In addition, the GI50 came out at 4.34 nM in experiment [3] and 2.97 nM in experiment [4].

For the compound `[2H]C1([2H])OC([2H])([2H])C([2H])([2H])N(c2cc(OC)c(Nc3ncc(C)c(Nc4ccc5nccnc5c4P(C)(C)=O)n3)cc2-c2cnn(C)c2)C1([2H])[2H]` [compound 141], the IC50 in experiment [1] (setting [5]) came out at 0.18 nM; in experiment [2] (A-431, 72 h) it was 194 nM; on wild-type EGFR (read-out: EGFR (WT) IC50) it was 1.14 nM. The GI50 in experiment [3] was 5.16 nM; in experiment [4] it was 2.26 nM.

On to `COc1cc(C23CCOCC2C3)c(-c2cnn(C)c2)cc1Nc1ncc(Br)c(Nc2ccc3nccnc3c2P(C)(C)=O)n1` (stereo not shown) [compound 77], for which the IC50 in experiment [1] (setting [5]) was determined as 1.24 nM; in experiment [2] (A-431, 72 h), 480 nM; at wild-type EGFR (read-out: EGFR (WT) IC50), 114 nM. Also, the GI50 in experiment [3] is 26.4 nM; in experiment [4], 14.4 nM.

Consider `COc1cc(N2CCN(C(C)C)CC2)c(-c2cnn(C)c2)cc1Nc1ncc(Br)c(Nc2ccc3nccnc3c2P(C)(C)=O)n1` [Compound 88, (6-((5-bromo-2-((4-(4-isopropylpiperazin-1-yl)-2-methoxy-5-(1-methyl-1H-pyrazol-4-yl)phenyl)amino)pyrimidin-4-yl)amino)quinoxalin-5-yl)dimethylphosphine oxide], for which the IC50 in experiment [1] (setting [5]) came to 0.09 nM; in experiment [2] (A-431, 72 h), 40.9 nM; on wild-type EGFR (read-out: EGFR (WT) IC50), 4.26 nM. The GI50 in experiment [3] is 4.45 nM; in experiment [4], 2.18 nM.

Turning to `COC[C@H]1CN(c2cc(OC)c(Nc3ncc(Br)c(Nc4ccc5nccnc5c4P(C)(C)=O)n3)cc2-c2cnn(C)c2)CCO1` [compound 152], the IC50 in experiment [1] (setting [5]) was found to be 0.35 nM; in experiment [2] (A-431, 72 h), 133 nM; at wild-type EGFR (read-out: EGFR (WT) IC50), 4.24 nM. For the same compound, the GI50 was 4.59 nM in experiment [3] and 1.06 nM in experiment [4].

As to `COc1cc(N2CCN(CC3(C#N)CC3)CC2)c(-c2cnn(C)c2)cc1Nc1ncc(Br)c(Nc2ccc3nccnc3c2P(C)(C)=O)n1` [compound 237, 1-((4-(4-((5-Bromo-4-((5-(dimethylphosphoryl)quinoxalin-6-yl)amino)pyrimidin-2-yl)amino)-5-methoxy-2-(1-methyl-1H-pyrazol-4-yl)phenyl)piperazin-1-yl)methyl)cyclopropane-1-carbonitrile], the IC50 in experiment [1] (setting [5]) turned out to be 0.52 nM; in experiment [2] (A-431, 72 h), 129 nM; on wild-type EGFR (read-out: EGFR (WT) IC50), 5.2 nM. Further, the GI50 was 3.05 nM in experiment [3] and 1.26 nM in experiment [4].

For `Cn1cc(-c2cc(Nc3ncc(Br)c(Nc4ccccc4P(C)(C)=O)n3)c(OCC(F)(F)F)nc2N2CCOCC2)cn1` [compound 123], the IC50 in experiment [1] (setting [5]) stood at 1.12 nM; in experiment [2] (A-431, 72 h), 8840 nM; at wild-type EGFR (read-out: EGFR (WT) IC50) it was 121 nM. Also, the GI50 is 82 nM in experiment [3] and 24.3 nM in experiment [4].
